For one test, the system named is tumors. The settings on record: cited from earlier work.
Test [1] has as its system Fibroblasts derived from a human being. Nature of the test: Effect on cell damage caused by UV-rays irradiation (colony formation). Type of test: cell-based. The settings on record: 100 mM melatonin in phosphate buffer, vs system without melatonin, p < 0.01, Fig. 1. The protocol: Fibroblasts derived from a human being were seeded in a laboratory dish having a diameter of 6 cm, at 400 cells/laboratory dish, and were cultured in Eagle's MEM medium containing 10% fetal calf serum in an incubator at 5% CO₂ , at 37°C for 24 hours. After the medium was exchanged with a phosphate buffer containing 100 mM of melatonin (SIGMA Co.), it was irradiated by UVB (Toshiba FL-SE 20W) at 50 mJ/cm² or 100 mJ/cm², followed by a further culturing for 6 days. The culture was fixed with a 10% neutral formalin, stained with a 30-fold Gimza solution, and the colonies per laboratory dish were counted. The colonies of the irradiated group were divided by the colonies of the non-irradiated group, to measure the colony formation ratio. As a Control, a phosphate buffer containing no melatonin was added. In Fig. 1, (a) is the system containing no melatonin and (b) is the system containing 100 mM of melatonin. […] The risk ratio p becomes statistically significant at p < 0.05. Accordingly, it can be seen that melatonin has a protective effect against cell damage caused by UV-rays irradiation.

The test system of a further test is hairless mice. It counts as in vivo, albino hairless mice. The protocol: Male albino hairless mice 8 weeks old (strain derived from Skh-HR-1, weight 25 - 35 g) were used, and one group consisted of 12 to 14 mice.
Melatonin (SIGMA Co.) was used as a suspension in 20% ethanol containing physiological saline, and administered by an intraperitoneal injection of 0.1 ml in doses at 3 levels of 0 mg, 1 mg, and 10 mg per day.
A Toshiba FL20-SE was mounted in a cage for irradiation, and irradiation was carried out at an irradiation intensity of 0.94 mW/cm², for 8 minutes per day, three times per week on alternate days for weeks. The irradiation was carried out 57 times, and the total irradiation dose was 25.7 J/cm². The administration of the sample was commenced simultaneously with the UV rays irradiation, and after the completion of the UV rays irradiation, the sample was administered continuously for an additional 10 weeks.
The size of the tumor generated was measured with slide calipers.
A t-examination was practiced for the number of tumors with sizes of 5 mm or more per one individual, and the number of tumors generated with sizes of 5 mm or more is shown in Fig. 2.

Turning to `COc1ccc2[nH]cc(CCNC(C)=O)c2c1` [melatonin, N-acetyl-5-methoxytryptamine], the proliferation of tumors result with tumors (experimental leukemia, sarcoma, mammary tumors (literature reports)) is reported as “suppressing of a proliferation of tumors”. For the same molecule, the course of tumors result in the test on tumors (mammary tumors (Hamilton, 1969) or lung cancer (Lapin and Ebels, 1976)) is on record as “tumors were worsened”. For the same molecule, the colony formation ratio result in test [1] (UVB 50 mJ/cm²) and in test [1] (UVB 100 mJ/cm²) was “significantly higher colony formation ratio” in each case. In addition, in the test on hairless mice (group administered with 10 mg of melatonin per day, intraperitoneal), the “protective effect against skin cancer” value was “a protective effect against skin cancer was seen”. In the test with hairless mice (melatonin administered group (1 mg or 10 mg per day, intraperitoneal), UV irradiated, p < 0.05 on 23 days and 26 days and thereafter, Fig. 2), the “generation and proliferation of tumors (number of tumors generated with sizes of 5 mm or more per one mouse)” value was “significantly suppressed”.

These data come from EP0438856A2, “Use of melatonin to protect the skin against the influence of UV-rays” (SHISEIDO COMPANY LIMITED, priority 1989, dated 1991).
